Test results from patent US20230107941A1, “HEPATITIS B CAPSID ASSEMBLY MODULATORS” (Venatorx Pharmaceuticals, Inc., priority 2019, published 2023).
Like-named read-outs stand apart in the source and are kept apart here.

Legend:
[1] = tested on: HepG2 cells; assay: In vitro cytotoxicity assay (MTT cell viability) in HepG2 cells; format: cell-based, human
How it was run: (§1)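 CC50 was derived by 4-parameter fit of viability relative to vehicle controls, measured as MTT formazan absorbance at 492 nm after 3–4 h of reagent and DMSO solubilization. Before that, HepG2 cells seeded overnight at 20,000/well were incubated 7 days at 37°C with compound from 30 μM down to 1.0 nM in half-log steps.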

[2] = tested on: HBV; assay: In vitro antiviral assay: anti-HBV replication in HepAD38 cells (extracellular HBV DNA by QPCR); format: cell-based, hepatitis B virus (genotype D, serotype ayw); settings: 7 days incubation, extracellular HBV DNA by QPCR, read-out: Anti-HBV EC50
How it was run: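 HepG2-derived HepAD38 cells (HBV genotype D, ayw, tet-repressible CMV) induced by tetracycline withdrawal, treated 7 days at 37 °C with compound (1 μM to 10 pM, 10-fold steps). Supernatant HBV DNA quantified by QPCR against standard curve, percent of DMSO control; EC50 by 4-parameter fit; entecavir positive control.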

[3] = In vitro cytotoxicity assay (MTT cell viability) in HepG2 cells; format: cell-based, human; settings: human
How it was run: as §1

[4] = tested on: HBV; settings: Phase 1b clinical trial, 600 mg bid dosing for 29 days; cited from earlier work
[5] = Hepatitis B virus, HePAD38, 168 h

| SMILES | EC50 [2, 5] [µM] | CC50 at 7 days [3] [µM] | also measured |
| --- | --- | --- | --- |
| Cc1cc(NC(=O)c2c(C)c(C(=O)C(=O)NC3CC(S(C)(=O)=O)C3)n(C)c2C)ccc1F (stereo not drawn) [Example 32, N-(4-fluoro-3-methylphenyl)-1,2,4-trimethyl-5-(2-(((1r,3r)-3-(methylsulfonyl)cyclobutyl)amino)-2-oxoacetyl)-1H-pyrrole-3-carboxamide] |  |  | CC50 ([1]; human, 7 days): > 30 µM; EC50 [2]: 0.05 to 0.499 µM |
| Cc1cc(NC(=O)c2c(C)c(C(=O)C(=O)NC3(C)CC(OP(=O)(O)O)C3)n(C)c2C)ccc1F (stereo not drawn) [Example 64, sodium (1s,3s)-3-(2-(4-((4-fluoro-3-methylphenyl)carbamoyl)-1,3,5-trimethyl-1H-pyrrol-2-yl)-2-oxoacetamido)-3-methylcyclobutyl phosphate] | > 1 |  | CC50 ([1]; HepG2 cells, 7 days incubation, MTT, read-out: HepG2 CC50): > 30 µM |
| Cc1cc(Cl)cc(NC(=O)c2c(C)c(C(=O)C(=O)N[C@]3(C)CC[C@@H](O)CC3)n(C)c2C)c1 [Example 169, N-(3-chloro-5-methylphenyl)-5-(2-(((1r,4r)-4-hydroxy-1-methylcyclohexyl)amino)-2-oxoacetyl)-1,2,4-trimethyl-1H-pyrrole-3-carboxamide] | < 0.05 | 5 to 30 |  |
| Cc1c(C(=O)Nc2cccc(C#N)c2)c(C)n(C)c1C(=O)C(=O)N[C@]1(C)CC[C@@H](O)CC1 [Example 170, N-(3-cyanophenyl)-5-(2-(((1r,4r)-4-hydroxy-1-methylcyclohexyl)amino)-2-oxoacetyl)-1,2,4-trimethyl-1H-pyrrole-3-carboxamide] | < 0.05 | > 30 |  |
| Cc1cc(NC(=O)c2c(C)c(C(=O)C(=O)N[C@@H]3C[C@@H](C(=O)O)N(C)C3)n(C)c2C)ccc1F [Example 171, (2S,4R)-4-(2-(4-((4-fluoro-3-methylphenyl)carbamoyl)-1,3,5-trimethyl-1H-pyrrol-2-yl)-2-oxoacetamido)-1-methylpyrrolidine-2-carboxylic acid] | > 1 | > 30 |  |
| Cc1cc(NC(=O)c2c(C)c(C(=O)C(=O)NC3CCCN(CC(=O)O)C3)n(C)c2C)ccc1F (stereo not drawn) [Example 172, 2-(3-(2-(4-((4-fluoro-3-methylphenyl)carbamoyl)-1,3,5-trimethyl-1H-pyrrol-2-yl)-2-oxoacetamido)piperidin-1-yl)acetic acid] | > 1 | > 30 |  |
| Cc1cc(NC(=O)c2c(C)c(C(=O)C(=O)N[C@H]3CN[C@H](C(=O)O)C3)n(C)c2C)ccc1F [Example 173, (2S,4R)-4-(2-(4-((4-fluoro-3-methylphenyl)carbamoyl)-1,3,5-trimethyl-1H-pyrrol-2-yl)-2-oxoacetamido)pyrrolidine-2-carboxylic acid] | 0.5 to 1 | > 30 |  |
| Cc1cc(NC(=O)c2c(C)c(C(=O)C(=O)N[C@]3(C)C[C@H](O)C3)n(C)c2-c2nccs2)ccc1F [Example 174, N-(4-fluoro-3-methylphenyl)-5-(2-(((1s,3s)-3-hydroxy-1-methylcyclobutyl)amino)-2-oxoacetyl)-1,4-dimethyl-2-(thiazol-2-yl)-1H-pyrrole-3-carboxamide] | 0.5 to 1 | > 30 |  |
| Cc1cc(NC(=O)c2c(C)c(C(=O)C(=O)N[C@H]3CC[C@@H](S(C)(=O)=O)CC3)n(C)c2-c2nccs2)ccc1F [Example 175, N-(4-fluoro-3-methylphenyl)-1,4-dimethyl-5-(2-(((1s,4s)-4-(methylsulfonyl)cyclohexyl)amino)-2-oxoacetyl)-2-(thiazol-2-yl)-1H-pyrrole-3-carboxamide] | > 1 | > 30 |  |
| Cc1cc(NC(=O)c2c(C)c(C(=O)C(=O)N[C@]3(C)CC[C@H](O)CC3)n(C)c2-c2nccs2)ccc1F [Example 176, N-(4-fluoro-3-methylphenyl)-5-(2-(((1s,4s)-4-hydroxy-1-methylcyclohexyl)amino)-2-oxoacetyl)-1,4-dimethyl-2-(thiazol-2-yl)-1H-pyrrole-3-carboxamide] | 0.05 to 0.499 | > 30 |  |
| Cc1cc(NC(=O)c2c(C)c(C(=O)C(=O)N[C@H]3CC[C@@H](O)CC3)n(C)c2-c2nccs2)ccc1F [Example 177, N-(4-fluoro-3-methylphenyl)-5-(2-(((1s,4s)-4-hydroxycyclohexyl)amino)-2-oxoacetyl)-1,4-dimethyl-2-(thiazol-2-yl)-1H-pyrrole-3-carboxamide] | > 1 | > 30 |  |
| Cc1cc(NC(=O)c2c(C)c(C(=O)C(=O)NCC(C)(C)O)n(C)c2-c2nccs2)ccc1F [Example 178, N-(4-fluoro-3-methylphenyl)-5-(2-((2-hydroxy-2-methylpropyl)amino)-2-oxoacetyl)-1,4-dimethyl-2-(thiazol-2-yl)-1H-pyrrole-3-carboxamide] | > 1 | > 30 |  |
| Cc1cc(NC(=O)c2c(C)c(C(=O)C(=O)N[C@@H]3CN[C@H](C(=O)O)C3)n(C)c2C)ccc1F [Example 179, (2S,4S)-4-(2-(4-((4-fluoro-3-methylphenyl)carbamoyl)-1,3,5-trimethyl-1H-pyrrol-2-yl)-2-oxoacetamido)pyrrolidine-2-carboxylic acid] | > 1 | > 30 |  |
| Cc1cc(NC(=O)c2c(C)c(C(=O)C(=O)N[C@@H]3CCN[C@H](C(=O)O)C3)n(C)c2C)ccc1F [Example 180, (2S,4R)-4-(2-(4-((4-fluoro-3-methylphenyl)carbamoyl)-1,3,5-trimethyl-1H-pyrrol-2-yl)-2-oxoacetamido)piperidine-2-carboxylic acid] | > 1 | > 30 |  |
| Cc1cc(NC(=O)c2c(C)c(C(=O)C(=O)N[C@]3(C)C[C@H](O)C3)n(C)c2-c2ccsc2)ccc1F [Example 181, N-(4-fluoro-3-methylphenyl)-5-(2-(((1s,3s)-3-hydroxy-1-methylcyclobutyl)amino)-2-oxoacetyl)-1,4-dimethyl-2-(thiophen-3-yl)-1H-pyrrole-3-carboxamide] | 0.5 to 1 | 5 to 30 |  |
| Cc1cc(NC(=O)c2c(C)c(C(=O)C(=O)N[C@H]3CC[C@@H](S(C)(=O)=O)CC3)n(C)c2-c2ccsc2)ccc1F [Example 182, N-(4-fluoro-3-methylphenyl)-1,4-dimethyl-5-(2-(((1s,4s)-4-(methylsulfonyl)cyclohexyl)amino)-2-oxoacetyl)-2-(thiophen-3-yl)-1H-pyrrole-3-carboxamide] | > 1 | > 30 |  |
| Cc1cc(NC(=O)c2c(C)c(C(=O)C(=O)N[C@]3(C)CC[C@H](O)CC3)n(C)c2-c2ccsc2)ccc1F [Example 183, N-(4-fluoro-3-methylphenyl)-5-(2-(((1s,4s)-4-hydroxy-1-methylcyclohexyl)amino)-2-oxoacetyl)-1,4-dimethyl-2-(thiophen-3-yl)-1H-pyrrole-3-carboxamide] | 0.05 to 0.499 | > 30 |  |
| Cc1cc(NC(=O)c2c(C)c(C(=O)C(=O)N[C@H]3CC[C@@H](O)CC3)n(C)c2-c2ccsc2)ccc1F [Example 184, N-(4-fluoro-3-methylphenyl)-5-(2-(((1s,4s)-4-hydroxycyclohexyl)amino)-2-oxoacetyl)-1,4-dimethyl-2-(thiophen-3-yl)-1H-pyrrole-3-carboxamide] | > 1 | 5 to 30 |  |
| Cc1cc(NC(=O)c2c(C)c(C(=O)C(=O)NCC(C)(C)O)n(C)c2-c2ccsc2)ccc1F [Example 185, N-(4-fluoro-3-methylphenyl)-5-(2-((2-hydroxy-2-methylpropyl)amino)-2-oxoacetyl)-1,4-dimethyl-2-(thiophen-3-yl)-1H-pyrrole-3-carboxamide] | 0.5 to 1 | 5 to 30 |  |
| CCN(C(=O)C(=O)c1c(C)c(C(=O)Nc2ccc(F)c(C)c2)c(C)n1C)C(C)C [Example 186, 5-(2-(ethyl(isopropyl)amino)-2-oxoacetyl)-N-(4-fluoro-3-methylphenyl)-1,2,4-trimethyl-1H-pyrrole-3-carboxamide] | 0.5 to 1 | > 30 |  |
| Cc1cc(NC(=O)c2c(C)c(C(=O)C(=O)N3CCOCC3)n(C)c2C)ccc1F [Example 187, N-(4-fluoro-3-methylphenyl)-1,2,4-trimethyl-5-(2-morpholino-2-oxoacetyl)-1H-pyrrole-3-carboxamide] | 0.5 to 1 | > 30 |  |
| CCC(CC)NC(=O)C(=O)c1c(C)c(C(=O)Nc2ccc(F)c(C)c2)c(C)n1C [Example 188, N-(4-fluoro-3-methylphenyl)-1,2,4-trimethyl-5-(2-oxo-2-(pentan-3-ylamino)acetyl)-1H-pyrrole-3-carboxamide] | < 0.05 | 5 to 30 |  |
| O=C(Nc1cc(F)c(F)c(F)c1)c1ccc(F)c(S(=O)(=O)N2CCC(O)CC2)c1 [NVR 3-778] |  |  | reduction in HBV DNA [4]: −1.7 log 10 |
